Assay results from patent US20260102407A1, “TREATMENT METHODS” (priority 2020, published 2026).

How the values were obtained:
VEGF-A165 = assay: Immunohistochemical staining of rat retina, VEGF-A165; type: in vivo
Excerpt: Rat choroidal laser injury model. Male Brown Norway pigmented rats (8-14 week-old) were anesthetized by an intramuscular injection of Rompun® (xylazine)/Imalgene® (ketamine). Pupils were dilated by instillation of one drop of 0.5% tropicamide before laser burn. Six burns were created in both eyes on Day 0 by applying 170 mW of 532 nm laser light (Viridis laser, Quantel, France) on 75 μm spots around the optic nerve, between the main retinal vessel branches, for 0.1s, through the slit lamp and contact lens. Production of a bubble at the time of laser application confirmed the rupture of Bruch's membrane. […] After anaesthesia, 10% sodium fluorescein (250 μl/100 g body weight) was injected subcutaneously, and ocular fluorescence was recorded 10 min after dye injection. Fluorescein leakage was evaluated on Days 14 and 21 in the angiograms by two examiners masked to the study groups and graded for fluorescein intensity as follows: score 0: no leakage; 1: slightly stained; 2: moderately stained; 3: strongly stained.
Immunohistochemical staining of rat retina. […] IOD of positive staining (red chromogen) was assessed for CD31, VEGF-A165, pERK, FosB and VCAM-1 using Image-Pro Plus software (Cybernetics, Bethesda, MD). IOD in IPL and INL was quantified for CD31; OPL to OS for VEGF-A165; INL to ONL for pERK; GCL to OS for FosB; OLM for VCAM-1, using Image-Pro Plus. […]

genes induced by IL-1β = assay: RNA-seq of IL-1β-treated HMEC-1; type: cell-based, human; conditions: 30 μM, 20 ng/ml IL-1β 4 h
Experimental: RNA-seq. HMEC-1 were seeded into nine 100 mm petri dishes with complete MCDB131 medium containing 10% FBS. At 70-80% confluency, cells were growth-arrested with serum-free MCDB131 medium with no hydrocortisone or EGF for 44 h. Cells were pre-treated with 30 μM BT2 in the same medium for 4 h then stimulated with 20 ng/mL IL-1β for a further 4 h. Total RNA was extracted using RNeasy Mini Kit (Qiagen, Amtsgericht Dusseldorf) with modification. Briefly, cells were washed twice with pre-cooled 1×PBS and TRIzol (Thermo Fisher Sci, Waltham, MA) was added to lyze the cells. Chloroform was added to the mixture prior to centrifugation at 13000 rpm for 15 min at 4° C. Upper aqueous layer containing total RNA was transferred to fresh microtubes and isopropanol was added and loaded into RNeasy column. Columns were washed with Buffers RW1 and RPE. Total RNA was eluted from the column using RNAse-free water. Samples were submitted to The Ramaciotti Centre for Genomics (UNSW, Australia) for TruSeq Stranded mRNA-seq preparation and sequencing by One NextSeq 500 1×75 bp High Output flowcell with data output up to 400M reads. Quality control of samples was set at >80% higher than Q30 at 1×75 bp.
RNA-seq reads were first assessed for quality using the tool FastQC (v0.11.8) (On the World-Wide-Web at: bioinformatics.babraham.ac.uk/projects/fastqc/). The tool Salmon was used for quantifying transcript abundance from RNA-seq reads (Patro, R., et al., Nat Methods 14, 417-419 (2017)). The R package DESeq2 (Love, M. I., et al., Genome Biol 15, 550 (2014)) that incorporates a method for differential analysis of count data was then used to identify differentially expressed genes across specific comparisons. The heatmap.2 function from the R package gplots v3.0.1.1 was used to generate heatmaps using counts per million (cpm) values for sets of genes of interest. The database for annotation, visualization and integrated discovery (DAVID) (Jiao, X., et al., Bioinformatics 28, 1805-1806 (2012)), a web-based online bioinformatics resource was used to identify the gene ontologies such as biological processes (BP) found to be enriched for lists of differentially expressed genes for specific comparisons.

Solubility in water = type: physicochemical

CCOC(=O)Nc1ccc2c(c1)C(=O)N(CC)c1ccccc1O2 [BT2, (10-ethyl-11-oxo-10,11-dihydro-dibenzo[b,f][1,4]oxazepin-2-yl)-carbamic acid ethyl ester]
inducible expression of VEGF-A165 in retina (VEGF-A165; lasered rat eyes 21 days after injury): inhibited the inducible expression of VEGF-A165
VEGF-A165 staining gradient relative to the wound (VEGF-A165; lasered rat eyes, 100 μm boxed increments): inhibited by BT2
IL-1β-inducible FosB and VCAM-1 expression (RNA-seq) (genes induced by IL-1β): suppress IL-1β-inducible FosB and VCAM-1 expression
expression of other regulatory genes including ICAM-1, CXCL2, KLF5, Egr-1 and Fos (RNA-seq) (genes induced by IL-1β): inhibited a range of other regulatory genes
number of the 325 IL-1β-induced genes (log FC≥2) inhibited (log FC≥2) (genes induced by IL-1β): 89
proportion of the 325 IL-1β-induced genes inhibited (genes induced by IL-1β): 27.5%
solubility in water (Solubility in water): poorly soluble in water
